Measured values reported in US6365628B1 (Thia Medica AS, priority 1998, dated 2002).

Legend:
[1] = test system: Escherichia coli; assay: Test for mutagenic activity in Escherichia coli strains; format: cell-based; details: 3-1000 mg/plate (TTA) 2-5000 mg/plate (TSA)
Text: (§1) Tests for mutagenic activity have been performed by Covance Laboratories Limited, England. […] Furthermore, TTA was not mutagenic when tested in mouse lymphoma cells […] L5178Y.

[2] = test system: Salmonella typhimurium; assay: Test for mutagenic activity in Salmonella typhimurium strains; format: cell-based; details: 3-1000 mg/plate (TTA) 2-5000 mg/plate (TSA)
Text: as §1

[3] = test system: Wistar Charles River rats; assay: Euglycemic hyperinsulinemic clamp, high fat diet induced insulin resistance (Example 12); format: in vivo, rat; details: HF diet supplemented with TTA, 21 days, 90 min clamp (FIG. 4)
Experimental: After 21 days on their respective diets (see above), the rats were anaesthetised by injection of xylazine hydrochloride (Rometar SPOFA, Prague, Czech Republic; 10 mg/ml) and ketamine hydrochloride (Narkamon SPOFA, Prague, Czech republic; 75 mg/ml), and fitted with chronic carotid artery and jugular vein cannulas as described by Koopmans et al. (Koopmans, S. J., et al., Biochim Biophys Acta, 1115, […] 1992.). The cannulated rats were allowed to recover for two days after surgery before the clamping studies which were carried out according to Kraegen et al. (Kraegen, E. W., et al., Am J Physiol, 248, E353-E362 1983.). Thus, on the third day after surgery, unrestrained conscious rats were given a continuous infusion of porcine insulin (Actrapid, Novo Nordisk, Denmark) at a dose of 6.4 mU per kg per min to achieve plasma insulin levels in the upper physiological range. The arterial blood glucose concentration was clamped at the basal fasting level, by variable infusion of a 30% w/v glucose solution (Leciva, Prague, Czech Republic). […]
Rats weighing 330±20 g were divided into 3 groups (n=9) and fed with three different diets: standard rat chow, high fat diet (HF) and HF supplemented with TTA. […] The glucose infusion rate (GIR) was determined from the period of the clamp where glycemia got stabilised, i.e. between 45-90 minutes after clamp commencement. […]

[4] = test system: obese Zucker fa/fa rats; assay: Lipid lowering effect in obese Zucker fa/fa rats (Example 3); format: in vivo, rat; details: 300 mg/day/kg by gavage once daily for 10 days, control palmitic acid
Experimental: Glucose (GLU, Boehringer Mannheim, Germany), free fatty acids (NEFA, C ACS-ACOD kit; Wako Chemicals, Dalton, USA) and b-hydroxybutyrate (310-A kit; Sigma Diagnostics Inc., St. Louis, USA) concentrations were measured using enzymatic methods. Insulin concentrations were determined with radioimmunoassay by (CIS bio International, Gif sur Yvette, France) using rat insulin as standard in the Zucker rats. In the Wistar Charles River rats, plasma glucose concentrations were measured with the aid of Beckman Glucose Analyzer (Fullerton, Calif., USA). Plasma insulin levels were measured using a RIA kit from Linco Research Inc. (St. Charles, Mo., USA). Phospholipids were measured by the enzymatic method of bioMérieux, Marcy-l {grave over ( )}Etoile, France, Triacylglycerol by the Technicon Method no. SA4-0324L90, USA and Cholesterol by the Technicon Method no. SA4-0305L90, USA.
Male obese Zucker fa/fa rats, weighing 100 g at the start of the experiment, were housed in pairs in metal wire cages in a room maintained at 12 h light-dark cycles and a constant temperature of 20±3° C. The animals were acclimatised for at least one week under these conditions before the start of the experiment.
TTA (tetradecylthioacetic acid) prepared in accordance with procedure described previously, and palmitic acid (control), was suspended in 0.5% (w/v) carboxymethyl cellulose (CMC). Six animals were used in both groups. TTA (tetradecylthioacetic acid) and palmitic acid were administered at a dose of 300 mg/day/kg body weight, by gastric intubation (gavage) once daily for 10 days. The rats were fasted for 2 hours before termination of the experiment. Blood and organs were collected. Lipid concentrations in plasma were determined using an autoanalyzer, as described in the method section.

Question: Which results are given for Tetradecylthioacetic acid [TTA]?
Answer: Induction of mutations in strains of Escherichia coli [1]: did not induce mutations; Induction of mutations in strains of Salmonella typhimurium [2]: did not induce mutations; Glucose infusion rate (GIR) in euglycemic hyperinsulinemic clamp [3]: fully normal; Decreased lipid level in plasma (% of control) Cholesterol [4]: 73 % of control; Decreased lipid level in plasma (% of control) Phospholipids [4]: 71 % of control; Decreased lipid level in plasma (% of control) Triglycerides [4]: 72 % of control
